Test results as given in US12403137B2, “Compounds and methods of use” (Tango Therapeutics, Inc., priority 2019, dated 2025).

Assays:
PRMT5 [1] = target: T1, PRMT5 (Homo sapiens, UniProt O14744); assay: PRMT5 inhibition assay with SAM as cofactor; type: biochemical; conditions: against PRMT5 in the presence of SAM as cofactor
T1 construct: purchased Viva (custom protein)
Excerpt: (§1) The Ki values can be calculated from the IC50 values as described in the Examples section. As detailed in the Examples section, for the assay performed in the presence of SAM, IC50=Ki×1.5 (Ki=IC50/1.5). For the assay performed in the presence of MTA, IC50=Ki×13.5 (Ki=IC50/13.5). Column 6 indicates the ratio between the Ki of compounds in the presence of SAM and the Ki of compounds in the presence of MTA

[2] = tested on: HAP1 MTAP-deleted cell line; assay: SDMA in-cell western assay, HAP1 MTAP-deleted; type: cell-based; conditions: for IC50: Homo sapiens, HAP1 MTAP-deleted (MTAP-null) cell line; for MTAP Intact/Deleted Ratio: IC50 ratio HAP1 MTAP-intact / HAP1 MTAP-deleted, >=3 fold considered MTAP-selective
Procedure, shortened: (§2)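 IC50 values come from an SDMA in-cell western run in isogenic HAP1 cells, either MTAP-null or expressing endogenous MTAP. The intact-to-deleted IC50 ratio is used to score MTAP selectivity.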

PRMT5 [3] = target: T1, PRMT5; assay: PRMT5 inhibition assay with MTA as cofactor; type: biochemical; conditions: for IC50: against PRMT5 with MTA as cofactor; for SAM/MTA Ratio: ratio of Ki in the presence of SAM to Ki in the presence of MTA, Ki=IC50/1.5 (SAM), Ki=IC50/13.5 (MTA)
Excerpt: as §1

PRMT5 [4] = target: T1, PRMT5; assay: PRMT5 inhibition assay with no cofactor; type: biochemical; conditions: against PRMT5 with no cofactor; read-out: No Co-factor IC50
[5] = tested on: HAP1 MTAP-intact cell line; assay: SDMA in-cell western assay, HAP1 MTAP-intact; type: cell-based; conditions: Homo sapiens
Procedure, shortened: as §2

T1 sequence (O14744 whole entry): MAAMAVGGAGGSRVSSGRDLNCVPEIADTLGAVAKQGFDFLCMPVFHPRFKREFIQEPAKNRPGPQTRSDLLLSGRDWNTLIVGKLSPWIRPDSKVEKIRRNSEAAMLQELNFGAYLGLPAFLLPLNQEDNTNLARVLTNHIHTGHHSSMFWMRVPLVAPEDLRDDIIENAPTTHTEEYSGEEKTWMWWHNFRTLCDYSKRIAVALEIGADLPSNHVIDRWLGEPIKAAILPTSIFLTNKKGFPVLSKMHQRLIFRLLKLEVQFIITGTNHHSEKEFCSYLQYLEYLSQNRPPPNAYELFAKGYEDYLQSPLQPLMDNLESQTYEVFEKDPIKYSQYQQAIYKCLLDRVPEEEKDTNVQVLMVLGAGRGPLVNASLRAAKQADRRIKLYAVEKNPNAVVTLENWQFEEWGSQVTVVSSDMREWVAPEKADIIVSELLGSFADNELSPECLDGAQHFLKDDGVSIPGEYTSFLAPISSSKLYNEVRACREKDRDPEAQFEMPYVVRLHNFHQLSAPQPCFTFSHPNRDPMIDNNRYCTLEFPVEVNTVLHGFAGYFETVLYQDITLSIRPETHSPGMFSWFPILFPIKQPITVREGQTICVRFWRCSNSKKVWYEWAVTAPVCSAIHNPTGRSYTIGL
T1 sequence (Q9BQA1 whole entry partner): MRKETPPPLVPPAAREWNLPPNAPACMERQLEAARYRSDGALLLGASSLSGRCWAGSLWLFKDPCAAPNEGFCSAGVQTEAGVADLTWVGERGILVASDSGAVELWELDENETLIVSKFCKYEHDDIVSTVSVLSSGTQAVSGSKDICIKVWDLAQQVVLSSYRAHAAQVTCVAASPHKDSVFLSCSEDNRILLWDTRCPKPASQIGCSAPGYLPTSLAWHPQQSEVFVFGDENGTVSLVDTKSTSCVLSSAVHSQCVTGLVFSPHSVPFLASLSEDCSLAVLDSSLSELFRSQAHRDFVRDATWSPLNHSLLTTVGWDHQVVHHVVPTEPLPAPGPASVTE

| Compound | IC50 (PRMT5 [1]) | IC50 [2] | IC50 (PRMT5 [3]) | IC50 (PRMT5 [4]) | IC50 [5] | MTAP Intact/Deleted Ratio [2] | SAM/MTA Ratio (PRMT5 [3]) |
| --- | --- | --- | --- | --- | --- | --- | --- |
| Cc1ncoc1COc1ccc2c(c1)CN[C@H]([C@H](O)CNC(=O)c1cc(NC3CC4(CCC4)C3)nc(N3CCCCC3)n1)C2 [Compound 57, N-[(2R)-2-hydroxy-2-[(3S)-7-[(4-methyloxazol-5-yl)methoxy]-1,2,3,4-tetrahydroisoquinolin-3-yl]ethyl]-2-(1-piperidyl)-6-(spiro[3.3]heptan-2-ylamino)pyrimidine-4-carboxamide] | 50 to 500 nM | < 1000 nM | 50 to 500 nM | 50 to 500 nM | 1000 to 10000 nM | A* (an IC50 ratio greater than or equal to 10 fold between the IC50 in the HAP1 MTAP-intact cell line and the HAP1 MTAP-deleted cell line) | A (a Ki ratio greater than or equal to 10 fold between the Ki in the presence of SAM and the Ki in the presence of MTA) |
| Cc1ncoc1COc1ccc2c(c1)CN[C@H]([C@H](O)CNC(=O)c1cc(NC3CCC3)ncn1)C2 [Compound 32, 6-(cyclobutylamino)-N—((R)-2-hydroxy-2-((S)-7-((4-methyloxazol-5-yl)methoxy)-1,2,3,4-tetrahydroisoquinolin-3-yl)ethyl)pyrimidine-4-carboxamide] | 50 to 500 nM | < 1000 nM | < 50 nM | 500 to 5000 nM | 1000 to 10000 nM | B* (an IC50 ratio greater than or equal to 3 fold but lower than 10 fold between the IC50 in the HAP1 MTAP-intact cell line and the HAP1 MTAP-deleted cell line) | A (a Ki ratio greater than or equal to 10 fold between the Ki in the presence of SAM and the Ki in the presence of MTA) |
| CCOc1cc(C(=O)N2C3CCC2COC3)ccc1C(=O)NC[C@@H](O)[C@@H]1Cc2ccc(OCc3ccnn3C)cc2CN1 [Compound 5, 4-(3-oxa-8-azabicyclo[3.2.1]octane-8-carbonyl)-2-ethoxy-N—((R)-2-hydroxy-2-((S)-7-((1-methyl-1H-pyrazol-5-yl)methoxy)-1,2,3,4-tetrahydroisoquinolin-3-yl)ethyl)benzamide] | 50 to 500 nM | < 1000 nM | 50 to 500 nM | 500 to 5000 nM | < 1000 nM | C* (an IC50 ratio of less than 3 fold between the IC50 in the HAP1 MTAP-intact cell line and the HAP1 MTAP-deleted cell line) | A (a Ki ratio greater than or equal to 10 fold between the Ki in the presence of SAM and the Ki in the presence of MTA) |
| CC(=O)N1CC(Nc2cc(C(=O)NC[C@@H](O)[C@@H]3Cc4ccc(OCc5ocnc5C)cc4CN3)nc(N3CC4CCC3C4)n2)C1 (stereo partly drawn) [Compound 53, 6-[(1-acetylazetidin-3-yl)amino]-2-(3-azabicyclo[2.2.1]heptan-3-yl)-N-[(2R)-2-hydroxy-2-[(3S)-7-[(4-methyloxazol-5-yl)methoxy]-1,2,3,4-tetrahydroisoquinolin-3-yl]ethyl]pyrimidine-4-carboxamide] | 50 to 500 nM | < 1000 nM | < 50 nM | 50 to 500 nM | 1000 to 10000 nM | A* (an IC50 ratio greater than or equal to 10 fold between the IC50 in the HAP1 MTAP-intact cell line and the HAP1 MTAP-deleted cell line) | A (a Ki ratio greater than or equal to 10 fold between the Ki in the presence of SAM and the Ki in the presence of MTA) |
| Cc1ncoc1COc1ccc2c(c1)CN[C@H]([C@H](O)CNC(=O)c1cc(NC3CCC3)cc(N3CCCCC3)c1)C2 [Compound 58, 3-(cyclobutylamino)-N-[(2R)-2-hydroxy-2-[(3S)-7-[(4-methyloxazol-5-yl)methoxy]-1,2,3,4-tetrahydroisoquinolin-3-yl]ethyl]-5-(1-piperidyl)benzamide] | 50 to 500 nM | < 1000 nM | < 50 nM | 50 to 500 nM | 1000 to 10000 nM | A* (an IC50 ratio greater than or equal to 10 fold between the IC50 in the HAP1 MTAP-intact cell line and the HAP1 MTAP-deleted cell line) | A (a Ki ratio greater than or equal to 10 fold between the Ki in the presence of SAM and the Ki in the presence of MTA) |
| CCOc1cc(C(=O)N2[C@@H]3CCC[C@H]2COC3)ccc1C(=O)NC[C@@H](O)[C@@H]1Cc2ccc(OCc3ocnc3C)cc2CN1 [Compound 10, 4-((1R,5S)-3-oxa-9-azabicyclo[3.3.1]nonane-9-carbonyl)-2-ethoxy-N—((R)-2-hydroxy-2-((S)-7-((4-methyloxazol-5-yl)methoxy)-1,2,3,4-tetrahydroisoquinolin-3-yl)ethyl)benzamide] | 50 to 500 nM | < 1000 nM | < 50 nM | 50 to 500 nM | 1000 to 10000 nM | A* (an IC50 ratio greater than or equal to 10 fold between the IC50 in the HAP1 MTAP-intact cell line and the HAP1 MTAP-deleted cell line) | A (a Ki ratio greater than or equal to 10 fold between the Ki in the presence of SAM and the Ki in the presence of MTA) |

Now from value to compound, other results behind:

| IC50 (PRMT5 [1]) | IC50 [2] | IC50 (PRMT5 [3]) | IC50 (PRMT5 [4]) | IC50 [5] | Compound | MTAP Intact/Deleted Ratio [2] | SAM/MTA Ratio (PRMT5 [3]) |
| --- | --- | --- | --- | --- | --- | --- | --- |
| 50 to 500 nM | < 1000 nM | 50 to 500 nM | 50 to 500 nM | 1000 to 10000 nM | COCCN(C)c1cc(C(=O)NC[C@@H](O)[C@@H]2Cc3ccc(OCc4ocnc4C)cc3CN2)cc(NC2CCC2)n1 [Compound 33, 2-(cyclobutylamino)-N—((R)-2-hydroxy-2-((S)-7-((4-methyloxazol-5-yl)methoxy)-1,2,3,4-tetrahydroisoquinolin-3-yl)ethyl)-6-((2-methoxyethyl)(methyl)amino)isonicotinamide] | B* (an IC50 ratio greater than or equal to 3 fold but lower than 10 fold between the IC50 in the HAP1 MTAP-intact cell line and the HAP1 MTAP-deleted cell line) | A (a Ki ratio greater than or equal to 10 fold between the Ki in the presence of SAM and the Ki in the presence of MTA) |
| 50 to 500 nM | < 1000 nM | < 50 nM | 50 to 500 nM | 1000 to 10000 nM | CCOc1nc(N2CCN(C(=O)OC)CC2)ccc1C(=O)NC[C@@H](O)[C@@H]1Cc2ccc(OCc3ocnc3C)cc2CN1 [Compound 17, methyl 4-(6-ethoxy-5-(((R)-2-hydroxy-2-((S)-7-((4-methyloxazol-5-yl)methoxy)-1,2,3,4-tetrahydroisoquinolin-3-yl)ethyl)carbamoyl)pyridin-2-yl)piperazine-1-carboxylate] | A* (an IC50 ratio greater than or equal to 10 fold between the IC50 in the HAP1 MTAP-intact cell line and the HAP1 MTAP-deleted cell line) | A (a Ki ratio greater than or equal to 10 fold between the Ki in the presence of SAM and the Ki in the presence of MTA) |
| 50 to 500 nM | 1000 to 10000 nM | < 50 nM | 50 to 500 nM | ≥ 10000 nM | CC(=O)N1CCC(Nc2cc(C(=O)NC[C@@H](O)[C@@H]3Cc4ccc(OCc5ocnc5C)cc4CN3)ccn2)CC1 [Compound 44, 2-[(1-acetyl-4-piperidyl)amino]-N-[(2R)-2-hydroxy-2-[(3S)-7-[(4-methyloxazol-5-yl)methoxy]-1,2,3,4-tetrahydroisoquinolin-3-yl]ethyl]pyridine-4-carboxamide] | B* (an IC50 ratio greater than or equal to 3 fold but lower than 10 fold between the IC50 in the HAP1 MTAP-intact cell line and the HAP1 MTAP-deleted cell line) | A (a Ki ratio greater than or equal to 10 fold between the Ki in the presence of SAM and the Ki in the presence of MTA) |
| 50 to 500 nM | < 1000 nM | < 50 nM | 50 to 500 nM | < 1000 nM | CC(=O)N1CCC(Nc2cc(C(=O)NC[C@@H](O)[C@@H]3Cc4ccc(OCc5ocnc5C)cc4CN3)nc(N3CCCCC3)n2)CC1 [Compound 50, 6-[(1-acetyl-4-piperidyl)amino]-N-[(2R)-2-hydroxy-2-[(3S)-7-[(4-methyloxazol-5-yl)methoxy]-1,2,3,4-tetrahydroisoquinolin-3-yl]ethyl]-2-(1-piperidyl)pyrimidine-4-carboxamide] | A* (an IC50 ratio greater than or equal to 10 fold between the IC50 in the HAP1 MTAP-intact cell line and the HAP1 MTAP-deleted cell line) | A (a Ki ratio greater than or equal to 10 fold between the Ki in the presence of SAM and the Ki in the presence of MTA) |
| 50 to 500 nM | < 1000 nM | 50 to 500 nM | 50 to 500 nM | < 1000 nM | Cc1ncoc1COc1ccc2c(c1)CN[C@H]([C@H](O)CNC(=O)c1cc(NC3CC4(CCC4)C3)nc(N3CCN(C(=O)C4CC4)CC3)c1)C2 [Compound 42, 2-[4-(cyclopropanecarbonyl)piperazin-1-yl]-N-[(2R)-2-hydroxy-2-[(3S)-7-[(4-methyloxazol-5-yl)methoxy]-1,2,3,4-tetrahydroisoquinolin-3-yl]ethyl]-6-(spiro[3.3]heptan-2-ylamino)pyridine-4-carboxamide] | A* (an IC50 ratio greater than or equal to 10 fold between the IC50 in the HAP1 MTAP-intact cell line and the HAP1 MTAP-deleted cell line) | A (a Ki ratio greater than or equal to 10 fold between the Ki in the presence of SAM and the Ki in the presence of MTA) |
